{"source": "ChEMBL document CHEMBL2417399", "about": "“Discovery of highly potent and selective D4 ligands by interactive SAR study” (Bioorg Med Chem Lett, 2013)", "key": {"D(1A) dopamine receptor": {"target": "D(1A) dopamine receptor (Homo sapiens, UniProt P21728)", "sequence (P21728 whole entry)": "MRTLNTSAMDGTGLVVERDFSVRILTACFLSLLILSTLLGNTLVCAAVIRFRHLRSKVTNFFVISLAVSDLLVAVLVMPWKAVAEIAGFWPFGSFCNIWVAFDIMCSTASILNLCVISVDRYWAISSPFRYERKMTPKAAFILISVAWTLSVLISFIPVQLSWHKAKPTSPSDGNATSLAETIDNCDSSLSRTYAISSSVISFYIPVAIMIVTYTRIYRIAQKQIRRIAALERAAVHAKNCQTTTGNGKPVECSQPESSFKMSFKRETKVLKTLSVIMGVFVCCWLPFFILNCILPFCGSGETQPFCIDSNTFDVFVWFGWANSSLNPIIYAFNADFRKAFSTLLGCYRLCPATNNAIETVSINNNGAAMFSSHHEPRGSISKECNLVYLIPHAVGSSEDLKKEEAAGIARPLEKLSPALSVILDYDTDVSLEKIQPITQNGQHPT", "assay": "Displacement of [3H]SCH23390 from human dopamine D1 receptor"}, "D(1B) dopamine receptor": {"target": "D(1B) dopamine receptor (Homo sapiens, UniProt P21918)", "sequence (P21918 whole entry)": "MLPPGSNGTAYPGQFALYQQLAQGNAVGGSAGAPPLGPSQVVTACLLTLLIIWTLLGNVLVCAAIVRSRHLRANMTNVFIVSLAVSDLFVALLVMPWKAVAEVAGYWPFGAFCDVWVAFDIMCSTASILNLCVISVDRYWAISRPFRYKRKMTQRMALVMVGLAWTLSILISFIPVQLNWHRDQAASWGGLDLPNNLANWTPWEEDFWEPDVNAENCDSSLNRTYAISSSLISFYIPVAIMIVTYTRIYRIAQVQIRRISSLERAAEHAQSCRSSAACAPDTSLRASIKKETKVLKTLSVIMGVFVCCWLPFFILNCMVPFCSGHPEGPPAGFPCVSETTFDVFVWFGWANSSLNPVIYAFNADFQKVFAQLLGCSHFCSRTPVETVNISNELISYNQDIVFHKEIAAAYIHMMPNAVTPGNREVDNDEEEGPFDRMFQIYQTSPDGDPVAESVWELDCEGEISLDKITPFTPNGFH", "assay": "Binding affinity to human dopamine D5 receptor by radioligand binding assay"}, "D(4) dopamine receptor": {"target": "T1, D(4) dopamine receptor (Homo sapiens, UniProt P21917)", "T1 sequence (P21917 whole entry)": "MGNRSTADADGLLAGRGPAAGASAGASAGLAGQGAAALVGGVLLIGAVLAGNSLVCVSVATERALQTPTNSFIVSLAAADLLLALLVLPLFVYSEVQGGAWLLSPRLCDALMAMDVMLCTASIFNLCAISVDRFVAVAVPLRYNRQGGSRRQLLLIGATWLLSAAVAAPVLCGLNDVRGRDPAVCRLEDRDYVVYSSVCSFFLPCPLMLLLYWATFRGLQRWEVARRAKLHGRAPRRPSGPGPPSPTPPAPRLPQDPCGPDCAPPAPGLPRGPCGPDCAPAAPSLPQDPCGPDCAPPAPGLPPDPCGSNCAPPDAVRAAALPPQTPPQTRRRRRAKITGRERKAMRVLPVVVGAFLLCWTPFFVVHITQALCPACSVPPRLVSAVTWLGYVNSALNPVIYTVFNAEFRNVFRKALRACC", "assay": "Binding affinity to human dopamine D4 receptor by radioligand binding assay"}, "D(3) dopamine receptor": {"target": "D(3) dopamine receptor (Homo sapiens, UniProt P35462)", "sequence (P35462 whole entry)": "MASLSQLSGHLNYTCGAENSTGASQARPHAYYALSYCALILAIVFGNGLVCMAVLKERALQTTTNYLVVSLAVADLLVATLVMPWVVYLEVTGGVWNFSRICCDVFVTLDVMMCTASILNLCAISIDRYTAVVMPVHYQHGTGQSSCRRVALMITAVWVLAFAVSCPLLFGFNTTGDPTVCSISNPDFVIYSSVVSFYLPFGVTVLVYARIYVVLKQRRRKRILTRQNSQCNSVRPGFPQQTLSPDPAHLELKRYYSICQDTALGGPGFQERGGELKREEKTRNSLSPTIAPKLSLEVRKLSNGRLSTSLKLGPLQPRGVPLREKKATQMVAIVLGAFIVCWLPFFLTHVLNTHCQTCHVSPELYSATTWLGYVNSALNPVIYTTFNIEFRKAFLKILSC", "assay": "Binding affinity to human dopamine D3 receptor by radioligand binding assay"}, "D(2) dopamine receptor": {"target": "D(2) dopamine receptor (Homo sapiens, UniProt P14416)", "sequence (P14416 whole entry)": "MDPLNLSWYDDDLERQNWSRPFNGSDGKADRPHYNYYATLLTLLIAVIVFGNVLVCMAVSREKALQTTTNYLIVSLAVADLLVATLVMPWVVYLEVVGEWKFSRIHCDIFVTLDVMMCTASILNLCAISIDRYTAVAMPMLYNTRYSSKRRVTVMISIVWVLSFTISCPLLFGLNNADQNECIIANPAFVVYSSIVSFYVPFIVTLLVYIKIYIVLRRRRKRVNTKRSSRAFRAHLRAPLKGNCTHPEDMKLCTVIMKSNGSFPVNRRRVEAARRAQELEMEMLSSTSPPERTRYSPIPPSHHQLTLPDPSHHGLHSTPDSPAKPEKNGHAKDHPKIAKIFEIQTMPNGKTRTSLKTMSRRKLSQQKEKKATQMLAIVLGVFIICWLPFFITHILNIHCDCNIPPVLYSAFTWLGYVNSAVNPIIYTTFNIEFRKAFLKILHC", "assay": "Displacement of [3H]spiperone from human dopamine D2 receptor"}, "Homo sapiens": {"species_on_record": "Homo sapiens", "assay": "Selectivity ratio of Ki for human dopamine D2 receptor to Ki for human dopamine D4 receptor"}}, "note": "pKi: −log10 of the molar value."}
{"smiles": "CCOc1ccccc1N1CCN(Cc2csc3ccccc23)CC1", "values": [{"measurement": "pKi", "setting": "D(1A) dopamine receptor", "result": "< 5.00"}, {"measurement": "pKi", "setting": "D(1B) dopamine receptor", "result": "< 5.00"}, {"measurement": "pKi", "setting": "D(4) dopamine receptor", "result": 8.35}, {"measurement": "pKi", "setting": "D(3) dopamine receptor", "result": 7.35}, {"measurement": "pKi", "setting": "D(2) dopamine receptor", "result": 6.66}]}
{"smiles": "Clc1cccc(N2CCN(Cc3c[nH]c4ccccc34)CC2)c1Cl", "values": [{"measurement": "pKi", "setting": "D(1A) dopamine receptor", "result": "< 5.00"}, {"measurement": "pKi", "setting": "D(1B) dopamine receptor", "result": "< 5.00"}, {"measurement": "pKi", "setting": "D(4) dopamine receptor", "result": 8.21}, {"measurement": "pKi", "setting": "D(3) dopamine receptor", "result": 6.91}]}
{"smiles": "Clc1ccc(N2CCN(Cc3cc4ccccn4n3)CC2)cc1", "values": [{"measurement": "pKi", "setting": "D(4) dopamine receptor", "result": 8.51}, {"measurement": "pKi", "setting": "D(3) dopamine receptor", "result": 5.30}, {"measurement": "pKi", "setting": "D(2) dopamine receptor", "result": 5.49}]}
{"smiles": "CCOc1ccccc1N1CCN(Cc2cccnc2)CC1", "values": [{"measurement": "pKi", "setting": "D(1A) dopamine receptor", "result": "< 5.00"}, {"measurement": "pKi", "setting": "D(1B) dopamine receptor", "result": "< 5.00"}, {"measurement": "pKi", "setting": "D(4) dopamine receptor", "result": 9.15}, {"measurement": "pKi", "setting": "D(3) dopamine receptor", "result": 7.38}, {"measurement": "pKi", "setting": "D(2) dopamine receptor", "result": 6.59}]}
{"smiles": "CCOc1ccccc1N1CCN(Cc2cccs2)CC1", "values": [{"measurement": "pKi", "setting": "D(1A) dopamine receptor", "result": "< 5.00"}, {"measurement": "pKi", "setting": "D(1B) dopamine receptor", "result": "< 5.00"}, {"measurement": "pKi", "setting": "D(4) dopamine receptor", "result": 8.41}, {"measurement": "pKi", "setting": "D(3) dopamine receptor", "result": 6.95}, {"measurement": "Ratio Ki", "setting": "Homo sapiens", "result": 14}, {"measurement": "pKi", "setting": "D(2) dopamine receptor", "result": 6.79}]}
{"smiles": "CCOc1ccccc1N1CCN(Cc2c[nH]c3ccccc23)CC1", "values": [{"measurement": "pKi", "setting": "D(1A) dopamine receptor", "result": "< 5.00"}, {"measurement": "pKi", "setting": "D(1B) dopamine receptor", "result": "< 5.00"}, {"measurement": "pKi", "setting": "D(4) dopamine receptor", "result": 10.52}, {"measurement": "pKi", "setting": "D(3) dopamine receptor", "result": 6.99}, {"measurement": "pKi", "setting": "D(2) dopamine receptor", "result": 6.33}]}
{"smiles": "Clc1cccc(N2CCN(Cc3cccnc3)CC2)c1Cl", "values": [{"measurement": "pKi", "setting": "D(1A) dopamine receptor", "result": "< 5.00"}, {"measurement": "pKi", "setting": "D(1B) dopamine receptor", "result": "< 5.00"}, {"measurement": "pKi", "setting": "D(4) dopamine receptor", "result": 8.36}, {"measurement": "pKi", "setting": "D(3) dopamine receptor", "result": 7.39}, {"measurement": "pKi", "setting": "D(2) dopamine receptor", "result": 6.49}]}
{"smiles": "Clc1cccc(N2CCN(Cc3csc4ccccc34)CC2)c1Cl", "values": [{"measurement": "pKi", "setting": "D(1A) dopamine receptor", "result": "< 5.00"}, {"measurement": "pKi", "setting": "D(1B) dopamine receptor", "result": "< 5.00"}, {"measurement": "pKi", "setting": "D(4) dopamine receptor", "result": 7.65}, {"measurement": "pKi", "setting": "D(3) dopamine receptor", "result": 7.28}, {"measurement": "pKi", "setting": "D(2) dopamine receptor", "result": 6.42}]}
{"smiles": "CCOc1ccccc1N1CCN(Cc2cccc3ccccc23)CC1", "values": [{"measurement": "pKi", "setting": "D(1A) dopamine receptor", "result": "< 5.00"}, {"measurement": "pKi", "setting": "D(1B) dopamine receptor", "result": "< 5.00"}, {"measurement": "pKi", "setting": "D(4) dopamine receptor", "result": 8.70}, {"measurement": "pKi", "setting": "D(3) dopamine receptor", "result": 7.23}, {"measurement": "pKi", "setting": "D(2) dopamine receptor", "result": 6.58}]}
{"smiles": "Clc1cccc(N2CCN(Cc3cccc4ccccc34)CC2)c1Cl", "values": [{"measurement": "pKi", "setting": "D(1A) dopamine receptor", "result": "< 5.00"}, {"measurement": "pKi", "setting": "D(1B) dopamine receptor", "result": "< 5.00"}, {"measurement": "pKi", "setting": "D(4) dopamine receptor", "result": 7.51}, {"measurement": "pKi", "setting": "D(3) dopamine receptor", "result": 7.04}, {"measurement": "pKi", "setting": "D(2) dopamine receptor", "result": 6.45}]}
